Laboratory results as given in US8829028B2, “5-HT4 receptor antagonists for the treatment of heart failure” (Serodus AS, priority 2002, dated 2014).
Several values for one entry are separate records, joined by “and”; a condition that tells them apart may be missing. Identical values can stand only once. Counter-ions that a name gives are not always drawn.

What was measured:
[1] = tested on: papillary muscles from Chronic heart failure rats; experiment: Inotropic and lusitropic response of isolated papillary muscles from post-MI Chronic heart failure rats (organ bath, 1 Hz); format: cell-based, rat; conditions: for RT (TR20−TPF), relaxation time / TPF (time to peak force) / TR20 (time to relaxation to 20% level): CHF, serotonin 10 μmol/l, then isoprenaline 100 μmol/l
Description: (§1) Male, Wistar rats (Mollegaard Breeding and Research Centre, Skensved, Denmark), weighing about 320 g were intubated and ventilated with 68% N2O, 29% O2 and 2-3% Isofluran (Abbot Laboratories, USA). An extensive myocardial infarction (MI) was induced by a proximal ligation of the left coronary artery. Six weeks later the rats were anaesthetized and ventilated on the respirator with 2.2% Isofluran. Left ventricular pressures were measured (Sjaastad et al., 2000, J. Appl. Physiol, 89: 1445-1454), and Chronic heart failure rats were included in the study if left ventricular end diastolic pressure (LVEDP) was >15 mm Hg. […] The sham-operated animals (SHAM) were subjected to the same surgical procedure but the coronary artery was not ligated.
(§2) Hearts were isolated from the anaesthetized animals (see above) and carefully dissected free of connective tissue and transferred to ice cold 0.9% NaCl and weighed. The aorta was cannulated, and the coronaries were perfused at 31° C. with a relaxing solution containing: (mmol/l) NaCl 118.3; KCl 3.0; CaCl2 0.5; MgSO4 4.0; KH2PO4 2.4; NaHCO3 24.9; glucose 10.0; mannitol 2.2 and equilibrated with 95% O2/5% CO2 at 31° C. (pH 7.4). Posterior left ventricular papillary muscle was ligated
(§3) The muscles were transported to a separate laboratory and mounted in organ baths. […] The papillary muscles were mounted in organ baths containing the relaxing solution and allowed to adapt at 31° C. for about 20 minutes before the solution was changed to one containing the following (in mmol/l): NaCl 119.2; KCJ 3.0; CaCl2 2.0; MgSO4 1.2; KH2PO4 2.4; NaHCO3 24.9; glucose 10.0; mannitol 2.22 and equilibrated with 95% O2/5% CO2 at 31° C. (pH 7.4).
(§4) The muscles were field stimulated with alternating polarity at 1 Hz with impulses of 5 msec duration and current about 20% above individual threshold (10-15 mA, determined in each experiment). The isometrically contracting muscles were stretched to the maximum of their length-tension curve. The force was recorded and analysed as previously described (Skomedal et al., 1997, J. Pharmacol. Exp. Ther. 280: 721-729). The muscles were allowed to equilibrate for 90 minutes. […] Averaged contraction-relaxation cycles (CRC) were calculated for different experimental periods, and these cycles were used to determine descriptive parameters like maximal development of force (dF/dt)max, time to peak force (TPF) and time to relaxation to 20% level (TR2O). Relaxation time (RT) was calculated as TR2O-TPF. (dF/dt)max was used as an index of contractility. Inotropic responses induced by agonists were expressed by increase in (dF/dt)max. RT was used as index of relaxation. Lusitropic responses were expressed as reduction in RT. Mechanical response at the end of the equilibrium period was used as the control response.
(§5) Agonist was added cumulatively or as a single bolus directly to the organ baths and was completely mixed in the solution within 2-3 seconds. […] The different agonists were added directly to the organ baths in increasing concentrations until supramaximal concentrations of agonist were obtained with respect to maximal inotropic response.
(§6) The responses for each concentration of agonist were generally calculated as percent of maximal response. The concentration-response curves constructed from papillary muscle experiment were constructed according to Ariens and Simonis (1964, supra), by estimating centiles (EC10 to EC100) for each single experiment and calculating the corresponding means. This calculation provides mean curves that express the response as fractional response or percent of maximum and display horizontal positioning and the correct mean slope of the curves. The horizontal positioning of the concentration-response curves was expressed as pEC50-values (=−log EC50).

[2] = tested on: 5-HT2A receptor (Rattus norvegicus); conditions: ketanserin 0.1 μmol/l
Description: as §4, with “RT was used as index of relaxation.” left out, “Mechanical response at the end of the equilibrium period was used as the control response.” left out
The responses for each concentration of agonist were generally calculated as percent of maximal response. […] The horizontal positioning of the concentration-response curves was expressed as pEC50-values (=−log EC50). Data are expressed as mean±standard error of the mean (SEM) and the number of animals expressed as n. The significance levels of differences were calculated according to Students t-test. […]

[3] = target: T1, 5-HT4 receptor (Rattus norvegicus, UniProt Q62758); experiment: Antagonism of the serotonin inotropic response by 5-HT4 antagonists in post-MI rat papillary muscle (reversal, curve shift, Schild Kb); format: cell-based; conditions: for block of the inotropic response to serotonin: each antagonist added as printed
T1 construct: The papillary muscles were mounted in organ baths; from tissue; host or cells: rat posterior left ventricular papillary muscle (post-MI or aortic-banding heart failure)
Description: as §4, §5
as §6, with “EC50). Data are expressed as mean±standard error of the mean (SEM) and the number of animals expressed as n. The significance levels of differences were calculated according to Students t-test. P<0.05 is considered statistically significant. The inhibition constants Kb were calculated from the Schild equation, based on the relative shifts of the concentration-response curves for receptor stimulation.” for “EC50).”

[4] = tested on: post-infarction congestive heart failure (CHF) rats; experiment: Six-week treatment of post-infarction CHF rats with a 5-HT4 antagonist, papillary muscle function afterwards; format: in vivo, rat; conditions: 50 mM SB207266 in s.c. miniosmotic pumps, six weeks
Excerpt: An extensive myocardial infarction (MI) was induced in 320 g male Wistar rats under anaesthesia (68% N2O, 29% O2 and 2-3% Isofluran) by a proximal ligation of the left coronary artery (Sjaastad et al. 2003, supra). Three days later, rats were included in the study if the rats had both clinical signs of congestive heart failure (tachypnoe and forced ventilation) and a large myocardial infarction as verified by echocardiography. Rats included in the study were randomized blindly to placebo or treatment. […]
After six weeks of treatment, the animals were again placed under Isofluran anaesthesia (68% N2O, 29% O2 and 2-3% Isofluran) with temperature control for echocardiographic and hemodynamic measurements, followed by euthanasia. Posterior left ventricular papillary muscles were then prepared, mounted in organ baths, equilibrated and field stimulated at 1 Hz (Sjaastad et al., 2003 supra) and the contraction-relaxation cycles (CRCs) were recorded and analysed as previously described with respect to maximal developed force (Fmax), maximal development of force (dF/dt)max, time to peak force (TPF), time to relaxation to 20% level (TR20) and relaxation time (RT=TR20-TPF). […]

[5] = tested on: papillary muscles from sham-operated rats; experiment: Inotropic and lusitropic response of isolated papillary muscles from sham-operated rats; format: cell-based, rat; conditions: for RT (TR20−TPF), relaxation time / TPF (time to peak force) / TR20 (time to relaxation to 20% level): Sham, N=6, serotonin 10 μmol/l, then isoprenaline 100 μmol/l
Description: as §1, §2, §3, §4, §5, §6

[6] = target: T1, 5-HT4 receptor; experiment: 5-HT4 receptor-mediated inotropic response in papillary muscle of CHF rat 6 weeks after aortic banding; format: cell-based; conditions: serotonin 10 μM; prazosin, timolol, atropine 1 μM each
Description: Trans-aortic constriction (aortic banding) of the ascending aorta was induced in 200 g male Wistar rats under anaesthesia, induced by 63% N2O, 32% O2 and 5% Isoflurane and maintained by 66% N2O, 33% O2 and 1-2% Isoflurane. A right-sided thoracotomi was performed through a 3-4 cm long cutaneous incision, the pericardium was opened and the ascending aorta identified and dissected free of surrounding tissue. A ligature was knit around the ascending aorta and a metal probe with diameter 0.9 mm. The metal probe was then removed. The result was a constriction of the ascending aorta with internal diameter about 0.9 mm. The thorax was then closed with 3-0 silk sutures and the skin closed with Dexon 1 sutures. […]
Papillary muscle was extracted from a CHF rat 6 weeks after aortic banding as described above. osterior left ventricular papillary muscle was prepared, mounted in organ bath, equilibrated and field stimulated at 1 Hz (Sjaastad et al. 2003 supra), and the contraction-relaxation cycles (CRCs) were recorded and analysed as previously described (Skomedal et al. 1997, J. Pharmacol Exp Ther 280: 721-729) (Sjaastad et al., 2003, supra) with respect to maximal developed force (Fmax), maximal development of force (dF/dt)max, time to peak force (TPF), time to relaxation to 20% level (TR20) and relaxation time (RT=TR20-TPF).

[7] = tested on: papillary muscles from MInf rats; experiment: Inotropic response to serotonin in papillary muscles from MInf rats (infarction without CHF); format: cell-based, rat; conditions: serotonin 10 μM
Excerpt: The magnitude of the response correlated positively with infarction size up to 30-40% of the inner myocardial surface in MInf animals (FIG. 8A). In MInf hearts with infarct size 30-40% the inotropic effect was of the same magnitude as in CHF hearts which all had infarct size >40%. A positive correlation with infarction size was also observed for 5-HT4(b) and ANP mRNA expression, whereas 5-HT2A mRNA levels were unchanged (FIG. 8B).

T1 sequence (Q62758 whole entry): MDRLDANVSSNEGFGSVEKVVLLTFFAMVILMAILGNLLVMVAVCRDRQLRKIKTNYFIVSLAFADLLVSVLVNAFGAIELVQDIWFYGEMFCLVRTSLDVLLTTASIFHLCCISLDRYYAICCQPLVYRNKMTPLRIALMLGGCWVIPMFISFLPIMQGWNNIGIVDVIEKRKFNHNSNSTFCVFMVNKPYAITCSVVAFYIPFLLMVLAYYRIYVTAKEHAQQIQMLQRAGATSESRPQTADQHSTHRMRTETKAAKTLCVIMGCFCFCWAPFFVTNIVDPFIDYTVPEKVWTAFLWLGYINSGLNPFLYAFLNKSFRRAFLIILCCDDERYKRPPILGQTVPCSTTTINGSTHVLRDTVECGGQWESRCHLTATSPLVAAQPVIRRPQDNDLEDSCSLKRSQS
Chain of 5-HT2A receptor (Rattus norvegicus) (Q62758 whole entry): as above

Structure (SMILES): CN1[C@@H]2CC[C@H]1CC(OC(=O)C(CO)c1ccccc1)C2.CN1[C@@H]2CC[C@H]1CC(OC(=O)C(CO)c1ccccc1)C2.O=S(=O)(O)O (stereo partly shown) [Atropine, atropine sulfate]
- inotropic response to serotonin restored by atropine ([1]; 1 μmol/l atropine after serotonin and carbachol, p>0.06 vs serotonin alone): 45.1±5.1%
- effect on serotonin-induced changes of TPF, TR2O and RT (contraction-relaxation cycle characteristics) ([1]; cumulative 10 μmol/l serotonin, 30 μmol/l carbachol, 1 μmol/l atropine): re-established the contraction-relaxation cycle characteristics

Structure (SMILES): C[N+](C)(C)CCOC(N)=O [Carbachol, carbamylcholine]
- inotropic response to serotonin after carbachol (reversal) ([1]; 30 μmol/l carbachol added after 10 μmol/l serotonin, p<0.01): 4.8±6.5%

Structure (SMILES): O=C(c1ccc(F)cc1)C1CCN(CCn2c(=O)[nH]c3ccccc3c2=O)CC1 [Ketanserin, 3-[2-[4-(4-fluorobenzoyl)-1-piperidinyl]ethyl]-2,4(1H,3H)-quinazolinedione]
- shift of the concentration-response curve for serotonin [2]: did not shift

Structure (SMILES): COc1cc(COc2cc(N)c(Cl)cc2C(=O)CCC2CCN(CCNS(C)(=O)=O)CC2)cc(OC)c1 [RS39604, 1-[4-amino-5-chloro-2-(3,5-dimethoxybenzyloxy)phenyl]-3 [1-[2-[(methylsulf-onyl)amino]ethyl]-4-piperidinyl]-1-propanone hydrochloride]
- Kb ([3]; 6 week post MI rats, 5 nM antagonist, read-out: pKb (converted)): 0.631 nM
- block of the inotropic response to serotonin ([3]; 6 week post MI rats): block the inotropic response to serotonin

Structure (SMILES): O=C(OCCN1CCCCC1)c1c[nH]c2ccccc12 [SB203186, 1-piperidinyl-ethyl-1H-indole-3-carboxylate]
- pKb ([3]; 6 week post MI rats, 5 nM antagonist): 9.1
- block of the inotropic response to serotonin ([3]; 6 week post MI rats): block the inotropic response to serotonin

Structure (SMILES): CCCCN1CCC(CNC(=O)c2c3n(c4ccccc24)CCCO3)CC1 [SB207266, N-[(1-butyl-4-piperidinyl)methyl]-3,4-dihydro-2H-[1,3]oxazino[3,2-a]indole-locarboxamide hydrochloride]
- maximal inotropic response to β-adrenoceptor stimulation (myocardial function) ([4]; vs placebo): trend towards normalisation
- duration of the contraction-relaxation cycle ([4]; preliminary data, not shown): trend towards normalisation

Structure (SMILES): CC(C)NC[C@H](O)c1ccc(O)c(O)c1 [isoprenaline, (−)-isoprenaline hemisulphate]
- inotropic effect (increase in contractile force) ([1]; 10 μmol/l isoprenaline as printed, SEM, n=10): 60.4±5.8% and 58.5±7%
- RT (TR20−TPF), relaxation time ([1]; n=10, listed as ISO): 81.0 ± 1.8 ms
- TPF (time to peak force) ([1]; n=10, listed as ISO): 123.1 ± 1.6 ms
- TR20 (time to relaxation to 20% level) ([1]; n=10, listed as ISO): 204.1 ± 2.9 ms
- RT (TR20−TPF), relaxation time ([1]; n=10, listed as Iso): 76.2 ± 1.8 % of control
- TPF (time to peak force) ([1]; n=10, listed as Iso): 83.2 ± 1.7 % of control
- TR20 (time to relaxation to 20% level) ([1]; n=10, listed as Iso): 80.3 ± 1.9 % of control
- RT (TR20−TPF), relaxation time ([5]; listed as ISO): 75.0 ± 2.5 ms
- TPF (time to peak force) ([5]; listed as ISO): 109.3 ± 2.7 ms
- TR20 (time to relaxation to 20% level) ([5]; listed as ISO): 174.0 ± 4.9 ms
- RT (TR20−TPF), relaxation time ([5]; listed as Iso): 69.4 ± 3.2 % of control
- TPF (time to peak force) ([5]; listed as Iso): 87.4 ± 2.3 % of control
- TR20 (time to relaxation to 20% level) ([5]; listed as Iso): 74.5 ± 1.7 % of control
- positive inotropic response ([5]; isoprenaline, sham-operated animals, mean±SEM, n=6): 111.6±8.6%

Structure (SMILES): Cl.NCCc1c[nH]c2ccc(O)cc12 [serotonin, 5-hydroxytryptamine hydrochloride]
- increase in contractile force ([1]; 10 μmol/l serotonin, SEM, n=10): 44.5±2.9%
- positive inotropic response above control level ([1]; 10 μmol/l serotonin, carbachol experiment, mean±SEM, n=5): 33.7±6.6%
- time from addition of serotonin to maximal inotropic response ([1]; 10 μmol/l serotonin, prazosin, atropine and timolol present): 1 to 2 min
- positive inotropic response to serotonin ([5]; 10 μmol/l serotonin, sham-operated animals, n=6): not seen in sham-operated animals
- inotropic response to serotonin [6]: positive inotropic response comparable in magnitude and characteristics to the positive inotropic response to 100 μM isoproterenol
- maximum inotropic response induced by serotonin ([3]; pooled average with and without GR113808, SEM, n=12): 18.7±2.4%
- inotropic response to serotonin [7]: elicited an inotropic response qualitatively similar to the response observed in CHF animals
